Experimental data published in ChEMBL document CHEMBL3994648, “Design and synthesis of a novel series of 4-heteroarylamino-1'-azaspiro[oxazole-5,3'-bicyclo[2.2.2]octanes as α7 nicotinic receptor agonists 2. Development of 4-heteroaryl SAR” (Bioorg Med Chem Lett, 2017).

Experiments:
[1] = Plasma concentration in mouse at 0.3 mg/kg, po after 30 mins; format: ADME, organism-based
[2] = Drug uptake in mouse brain at 0.3 mg/kg, po after 30 mins; format: ADME, organism-based; settings: read-out: Drug uptake

Which results are given for `c1ccc(-c2cc(NC3=NC[C@@]4(CN5CCC4CC5)O3)ncn2)cc1`?
concentration at 0.5 h [1]: 273 nM; concentration at 0.5 h [2]: 81 nM
